Literature values, collected in patent EP2061448B1, “SUSTAINED RELEASE FORMULATION OF NALTREXONE” (Nalpropion Pharmaceuticals, Inc., priority 2006, dated 2007).
Like-named read-outs stand apart in the source and are kept apart here.

Columns and labels:
[1] = oral administration, immediate release form
[2] = initial 25 mg dose followed by 50 mg daily for 10 weeks
[3] = system: pharmacologic effects of 25 mg of intravenously administered heroin

Row | Molecule | Tmax [1] | Moderate to severe nausea, patients [2] [%] | period of block of the pharmacologic effects of heroin ([3]; 50 mg of naltrexone hydrochloride, 25 mg of intravenously administered heroin) [hours] | duration of blockade ([3]; doubling the dose of naltrexone hydrochloride) [h] | duration of blockade ([3]; tripling the dose of naltrexone hydrochloride)
1 | O=C1CC[C@@]2(O)[C@H]3Cc4ccc(O)c5c4[C@@]2(CCN3CC2CC2)[C@H]1O5 [naltrexone, 17-(cyclopropylmethyl)-4,5α-epoxy-3,14-dihydroxymorphinan-6-one] | approximately 1 hour | 15 |  |  | 
2 | naltrexone hydrochloride |  |  | ≤ 24 | 48 | about 72 hours
